Test results published in article PMC9225715, “Development of PD3 and PD3-B for PDEδ inhibition to modulate KRAS activity” (Journal of Enzyme Inhibition and Medicinal Chemistry, 2022).

Tests used:
PDEδ [1] = target: T1, PDEδ (Homo sapiens, UniProt O43924); assay: FP-based competition binding assay using excess deltarasin
T1 construct: made in house; host or cells: E. coli BL21(DE3)
Method: (§1) Figure 3. Binding affinities of PDs measured by fluorescence polarisation. (A) Representative binding curve of PDs (PD3) titrated with PDEδ. The FP value was measured in PBS buffer (pH 7.2) containing 8 concentrations (0, 0.5, 1, 2, 4, 8, 16 and 32 μM) of PDEδ mixed with 0.5 μM PDs. Ex: 440 nm, Em: 526 nm; (B) Kd value and half-life of each compound; (C, D) Kinetic trace of PD3 and PD7 in the competition assay. PD3 was shown as a compound with the longest retention time (slow dissociation), whereas PD7 was shown as a compound with the shortest retention time (fast dissociation). The half-life was obtained by a competition binding assay using excess deltarasin. The optimal concentration of PDEδ for the competition assay was determined using the Kd value and PD concentration (0.5 μM) for making more than 68% of the binding complex. Ex: 430 nm, Em: 520 nm. TEXT PRINTED IN THE PICTURE: (A) PD3: Best-fit values Bmax: 261.7; Best-fit values Kd: 0.4991; Std. Error Bmax: 17.98; Std. […] Error Bmax 17.98 (last digit 8 or 6) and Std. Error Kd 0.1956 (5 and 6 not certain) / Panels C and D: k and half-life are printed without a label of their own; assigned to PD3 and PD7 from the panel legends (PDEδ+PD3+Del, PDEδ+PD7+Del)
To confirm that the PD compound occupies the same farnesylation binding site as deltarasin in PDEδ and to exclude the possibility that the FP signal resulted from non-specific hydrophobic interactions, we carried out a FP-based competition assay. PDs (0.5 µM) were incubated with the purified PDEδ protein for 2 h to ensure complete binding between the compound and the protein. Then, deltarasin was added to replace the PD compound in the prenyl binding pocket of PDEδ, which decreased the FP due to the free rotation of the released PD compound. As shown in Figure 3(B), the reverse correlation between Kd values and half-lives was observed (Figure 3(B) and Table 1). […] The rate constants and half-lives were measured only when the increased concentration of deltarasin produced concentration-independent kinetic parameters, which reflects complete displacement of the binding site with the deltarasin. The kinetic trace was fit to a single exponential decay to generate the dissociation rate constant and half-life. Given that the Kd value is a ratio of koff/kon in a simple bimolecular binding model, the measured half-life and Kd are not always matched due to the contribution from the association rate constant. Figure 3(C) (PD3) and 3 D (PD7) show a representative kinetic trace obtained in the competition assay.
Deltarasin, a well-known PDEδ inhibitor, was purchased from Chemietek (Indianapolis, IN) for the competition assay. Assay buffer and the plate were the same as used in fluorescence polarisation assay. The optimal concentration of PDEδ was determined based on the Kd values and ligand concentration (0.5 µM) to ensure the formation of ligand-protein complex. The mixture of PDEδ and compounds were incubated for 2 h at 4 °C. After adding deltarasin to the mixture, FP was immediately recorded by SpectraMax M5 microplate reader (Molecular Devices, San Jose, CA) with excitation at 430 nm and emission at 520 nm. In SpectraMax M5 microplate reader, single excitation and emission wavelengths need to be used for testing all compounds. Therefore, Ex 430/Em 520 was used for competition binding assay. The selected ex/em wavelengths have only a difference of less than 10 nm from the maximum wavelengths, and there was no critical issue for conducting assay. The kinetic trace was fit to a single exponential decay to generate dissociation rate constant and half-life.

PDEδ [2] = target: T1, PDEδ; assay: Fluorescence polarisation (FP)-based binding assay; conditions: 0.5 µM PD titrated with PDEδ, PBS pH 7.2; mean ± SD of three independent experiments; read-out: Kd value
Method: To evaluate the binding affinities of PDs to PDEδ, we also carried out a fluorescence polarisation (FP)-based binding assay after incubation of PDs with PDEδ. […] In the presence of 0.5 µM PD compounds, the polarisation value (mP value) increased following treatment with purified PDEδ in a dose-dependent manner until treatment with excess PDEδ induced saturation of binding. Among the tested compounds, 8 compounds were selected for further evaluation and SAR analysis. The binding curves for the selected 8 compounds are shown with their Kd values in Supplemental Figure S3.
as §1
PDEδ was diluted to make a series of two-fold dilutions with a starting concentration of 32 µM. The diluted solution was mixed with PBS buffer [137 mM NaCl, 2.7 mM KCl, 10 mM Na2HPO4, 2 mM KH2PO4 (pH 7.2)] and then the mixture was loaded on a 96 well black plate (SPL life Science, Gyeonggi-do, Republic of Korea). Compounds were transferred to the wells of assay plate and the final concentration of compounds was fixed to 0.5 µM. After the addition of the compound, the assay plates were incubated for 2 h at 4 °C. FP values were detected by SpectraMax M5 microplate reader (Molecular Devices, San Jose, CA) at the maximum absorption and emission wavelengths of PD compounds in assay buffer. Kd values were determined by previously reported method.

PDEδ [3] = target: T1, PDEδ; assay: Fluorescence measurement after incubation with recombinant PDEδ; assay type: binding; conditions: 2 µM PD + 2 µM PDEδ, 20 mM Tris buffer pH 7.5, Ex 280 nm
Method: With the structural rationale for the binding to PDEδ from the molecular docking studies, we measured the fluorescence responses of the PDs after incubation with recombinant PDEδ proteins to confirm the binding of PDs to PDEδ. We envisioned that the hydrophobic environment of the prenyl binding pocket of PDEδ, as depicted in Figure 1(C), could enhance the fluorescent signal due to the solvatochromic characteristics of IQ scaffold. In addition, tryptophan residues near the binding site of PDEδ and the fluorophore of PDs could act as a fluorescence resonance energy transfer (FRET) pair. […] All recoded spectra of PDs are depicted in Supplemental Figure S1. To compare the binding abilities of PD derivatives to the target protein, same concentration (2 µM) of PD compound was treated and then fluorescence intensity was measured in Spectrofluorometer FP-6500.
The fluorescence changes were measured to determine the interaction between PD compounds and PDEδ protein. The fluorescence spectra were obtained under Tris buffer [20 mM Tris-HCl (pH 7.5), 100 mM NaCl] at 20 °C. The concentration of PDEδ was 2 µM. After the addition of 2 µM PD compound, the mixture was gently inverted 3 times and then incubated for 1 min. The emission spectra were recorded on Spectrofluorometer FP-6500 (JASCO, Tokyo, Japan) at Ex 280 nm. The band width was 3 nm for excitation and 5 nm for emission.

PANC-1 cells = assay: Immunofluorescence staining of RAS localisation; assay type: cell-based, human; conditions: 18 h, anti-pan RAS antibody, PD3 10 µM, deltarasin 2, 5, 10 µM
Source text: Finally, we investigated whether PD3 changes KRAS localisation by inhibiting the interaction of KRAS with PDEδ in human pancreatic cancer cells. PDEδ binds the farnesylated RAS proteins and stabilises them[19]. Therefore, PDEδ activity leads to the accumulation of RAS at the plasma membrane (PM); conversely, downmodulation of PDEδ enhances RAS diffusion in the cytoplasm. To confirm the effect of PD3 on the relocalization of RAS, we carried out immunofluorescence staining of PANC-1 cells with an anti-RAS antibody (Figure 6). […] Conversely, in the DMSO-treated control group, RAS was mainly localised in the PM of PANC-1 cells. […] It is supposed that PD3 can induce changes in RAS localisation from the plasma membrane by interrupting the protein–protein interaction of KRAS-PDEδ.
Figure 6. Immunofluorescence of PANC-1 cells with an anti-Pan-RAS antibody (red). DMSO was used as a negative control, and deltarasin was used as a positive control. Ex: 633 nm, Em: ≥638 nm. The scale bar represents 20 µm.
PANC-1 cells were seeded with cover slip in a 6-well cell culture plate (SPL life Science, Gyeonggi-do, Republic of Korea) and incubated for 24 h under 37 °C and 5% CO2 prior to the experiment. […] The fluorescence images were detected by confocal microscope (TCS-SP8 confocal laser scanning microscope, Leica, Germany). Fluorescence signal was obtained by excitation at 633 nm and emission at ≥638 nm.

[4] = retention in PDEδ on displacement by excess deltarasin, 0.5 µM PD, mean ± SD of three independent experiments

Compound	Half-life (PDEδ [1]; [4])	Kd (PDEδ [2])	Fluorescence response upon incubation with PDEδ (PDEδ [3])	Half-life (PDEδ [1]; representative kinetic trace, single exponential decay)	koff (PDEδ [1]; representative kinetic trace, single exponential decay, read-out: dissociation rate constant k (converted))	RAS localisation at the plasma membrane (PM) (PANC-1 cells)
Brc1ccc(-c2nc3ccccc3c3cc4ccccn4c23)cc1 [PD1]	36 ± 2 min	284 ± 140 nM				
c1ccc(-c2nc3ccccc3c3cc4ccccn4c23)cc1 [PD4]	31 ± 9 min	505 ± 33 nM				
COc1ccc(-c2nc3ccccc3c3cc4ccccn4c23)cc1 [PD5]	20 ± 4 min	720 ± 85 nM				
COc1ccc(-c2nc3ccccc3c3cc4ccccn4c23)cc1OC [PD6]	19 ± 3 min	1280 ± 261 nM	exceeded the maximum detection limit of Spectrofluorometer			
c1ccc2c(-c3nc4ccccc4c4cc5ccccn5c34)cccc2c1 [PD7]	14 ± 1 min	1540 ± 180 nM		13 min	0.0009 s⁻¹	
c1ccc2cc(-c3nc4ccccc4c4cc5ccccn5c34)ccc2c1 [PD8]	35 ± 7 min	643 ± 128 nM				
c1csc(-c2nc3ccccc3c3cc4ccccn4c23)c1 [PD25]	26 ± 3 min	425 ± 75 nM				
c1ccc(Cn2c(-c3ccc(OC[C@H](C4CCNCC4)n4c(-c5ccccc5)nc5ccccc54)cc3)nc3ccccc32)cc1 [deltarasin, reference compound]						reduced the amount of RAS at the PM
